US20070264250A1, “Composition for Skin-Whitening and Wrinkle-Care” (priority 2004, published 2007)

Assay type: physicochemical
Settings: 1 mM, pH 7
Protocol: Stabilities of 2-o-α-glucopyranosyl-L-ascorbic acid and ascorbic acid in an aqueous solution were compared.
(1) 2-o-α-glucopyranosyl-L-ascorbic acid, (2) ascorbic acid, and (3) 2-o-α-glucopyranosyl-L-ascorbic acid and 10 units of α-glucosidase were added to 50 mM potassium phosphate buffer solution (pH 7.0) so that a concentration of each component was 1 mM, to produce test groups. The test groups were stored at 37° C., sampled every day for 5 days, and quantitatively analyzed.
The quantitative analysis (HPLC analysis) for test materials was conducted under conditions described in the following Table 1. An amount of remaining 2-o-α-glucopyranosyl-L-ascorbic acid or ascorbic acid which was not degraded was reduced by an initial concentration, and stability was evaluated using the ratio.
However, almost all vitamin C was degraded within 2 days. […] As well, it was confirmed that converted vitamin C was immediately degraded.

time within which almost all was degraded: ≤ 2 days
SMILES: O=C1O[C@H]([C@@H](O)CO)C(O)=C1O [vitamin C, ascorbic acid]
